Experimental data as given in the CheMixHub viscosity set.

Experiment: xn = mol fraction of the nth substance listed

Cc1cccc(C)c1 + CC(C)(C)O
308.15 K, 101 kPa
Details | viscosity [mPa·s]
x2 = 0.0642 | 0.542
x2 = 0.1265 | 0.59
x2 = 0.2068 | 0.633
x2 = 0.3029 | 0.667
x2 = 0.3766 | 0.72
x2 = 0.4301 | 0.756
x2 = 0.4992 | 0.793
x2 = 0.5983 | 0.909
x2 = 0.6924 | 1.013
x2 = 0.7966 | 1.296
x2 = 0.908 | 1.731

Nc1ccccc1Cl + CC(C)(C)O
viscosity [mPa·s], 101 kPa
Details | x1 = 0.0902 | x1 = 0.1802 | x1 = 0.3025 | x1 = 0.4125 | x1 = 0.5089 | x1 = 0.6158 | x1 = 0.7025 | x1 = 0.8054 | x1 = 0.9005
303.15 K | 3.13 | 3.28 | 3.44 | 3.57 | 3.66 | 3.73 | 3.78 | 3.82 | 3.84
308.15 K | 2.89 | 3.03 | 3.16 | 3.26 | 3.33 | 3.39 | 3.43 | 3.46 | 3.46
313.15 K | 2.36 | 2.52 | 2.68 | 2.79 | 2.88 | 2.98 | 3.03 | 3.09 | 3.11
318.15 K | 1.97 | 2.13 | 2.3 | 2.42 | 2.52 | 2.62 | 2.7 | 2.77 | 2.8

O=S1(=O)CCCC1 + CC(C)(C)O
viscosity [mPa·s], 101 kPa
Details | x1 = 0.1916 | x1 = 0.2786 | x1 = 0.3584 | x1 = 0.4717 | x1 = 0.5569 | x1 = 0.6312 | x1 = 0.732 | x1 = 0.8339 | x1 = 0.9188
303.15 K | 2.995 | 3.12 | 3.325 | 3.712 | 4.135 | 4.595 | 5.495 | 6.747 | 8.277
308.15 K | 2.513 | 2.644 | 2.844 | 3.213 | 3.602 | 4.022 | 4.832 | 5.938 | 7.276
313.15 K | 2.121 | 2.266 | 2.467 | 2.806 | 3.169 | 3.553 | 4.285 | 5.264 | 6.424

Cc1cccc(C)c1 + CC(C)CC(C)(C)C
308.15 K, 101 kPa
Details | viscosity [mPa·s]
x2 = 0.0651 | 0.5188
x2 = 0.1364 | 0.5018
x2 = 0.2067 | 0.4888
x2 = 0.3021 | 0.4746
x2 = 0.392 | 0.462
x2 = 0.4939 | 0.4518
x2 = 0.6007 | 0.4435
x2 = 0.7283 | 0.4385
x2 = 0.859 | 0.4352

BrC1CCCCC1 + CC(C)CO
viscosity [mPa·s], 101.33 kPa
Details | x1 = 0.0998 | x1 = 0.2024 | x1 = 0.3028 | x1 = 0.3991 | x1 = 0.4983 | x1 = 0.5946 | x1 = 0.7011 | x1 = 0.8014 | x1 = 0.9015
298.15 K | 2.871 | 2.496 | 2.252 | 2.095 | 1.981 | 1.915 | 1.878 | 1.877 | 1.915
313.15 K | 1.846 | 1.656 | 1.539 | 1.47 | 1.42 | 1.401 | 1.399 | 1.419 | 1.465

Cc1cccc(C)c1 + CC(C)CO
308.15 K, 101 kPa
Details | viscosity [mPa·s]
x2 = 0.066 | 0.543
x2 = 0.1299 | 0.555
x2 = 0.2218 | 0.581
x2 = 0.3376 | 0.635
x2 = 0.4463 | 0.714
x2 = 0.5733 | 0.862
x2 = 0.6333 | 0.954
x2 = 0.7251 | 1.146
x2 = 0.8223 | 1.479
x2 = 0.9039 | 1.794
x2 = 0.9623 | 2.218

NCCCO + CC(C)CO
293.15 K, 101 kPa
Details | viscosity [mPa·s]
x1 = 0.501 | 13.95
x1 = 0.7008 | 21.85

Nc1ccccc1Cl + CC(C)CO
viscosity [mPa·s], 101 kPa
Details | x1 = 0.0805 | x1 = 0.1856 | x1 = 0.2856 | x1 = 0.3751 | x1 = 0.4789 | x1 = 0.5761 | x1 = 0.6805 | x1 = 0.7859 | x1 = 0.8952
303.15 K | 2.81 | 3 | 3.16 | 3.29 | 3.42 | 3.53 | 3.63 | 3.71 | 3.78
308.15 K | 2.46 | 2.66 | 2.81 | 2.92 | 3.05 | 3.15 | 3.25 | 3.33 | 3.39
313.15 K | 2.16 | 2.35 | 2.5 | 2.61 | 2.73 | 2.83 | 2.93 | 2.99 | 3.01
318.15 K | 1.9 | 2.08 | 2.23 | 2.33 | 2.45 | 2.55 | 2.65 | 2.73 | 2.78

O=S1(=O)CCCC1 + CC(C)CO
viscosity [mPa·s], 101 kPa
Details | x1 = 0.0598 | x1 = 0.1852 | x1 = 0.259 | x1 = 0.3891 | x1 = 0.5066 | x1 = 0.5903 | x1 = 0.7089 | x1 = 0.7888 | x1 = 0.9464
303.15 K | 2.606 | 2.541 | 2.648 | 2.978 | 3.416 | 3.853 | 4.763 | 5.677 | 6.708
308.15 K | 2.261 | 2.222 | 2.319 | 2.611 | 3.017 | 3.414 | 4.229 | 5.037 | 7.667
313.15 K | 1.971 | 1.954 | 2.045 | 2.309 | 2.681 | 3.043 | 3.778 | 4.493 | 6.786

CCCCn1cc[n+](C)c1.F[B-](F)(F)F + CC(C)O
101.33 kPa
Details | viscosity [mPa·s]
293.15 K, x1 = 0.8458 | 68.89
293.15 K, x1 = 0.9327 | 95.48
298.15 K, x1 = 0.1585 | 7.02
298.15 K, x1 = 0.9327 | 82.35
303.15 K, x1 = 0.2402 | 9.55
303.15 K, x1 = 0.9327 | 70.16
308.15 K, x1 = 0.2402 | 8.45
313.15 K, x1 = 0.2402 | 6.79
313.15 K, x1 = 0.3505 | 9.91
318.15 K, x1 = 0.3505 | 7.14
318.15 K, x1 = 0.4422 | 9.33
323.15 K, x1 = 0.5619 | 8.26

NCCCO + CC(C)O
Details | viscosity [mPa·s]
293.15 K, 101 kPa, x1 = 0.7002 | 19.25

O=S1(=O)CCCC1 + CC(C)O
viscosity [mPa·s], 101 kPa
Details | x1 = 0.0756 | x1 = 0.1606 | x1 = 0.2446 | x1 = 0.3418 | x1 = 0.4362 | x1 = 0.5514 | x1 = 0.6552 | x1 = 0.754 | x1 = 0.8754
303.15 K | 1.634 | 1.705 | 1.823 | 2.067 | 2.386 | 2.94 | 3.662 | 4.701 | 6.713
308.15 K | 1.438 | 1.489 | 1.616 | 1.837 | 2.128 | 2.626 | 3.274 | 4.19 | 5.992
313.15 K | – | 1.324 | 1.442 | 1.644 | 1.908 | 2.356 | 2.945 | 3.754 | 5.332

CCCCCCCCCCCCCCCCCC(=O)O + CC(C)[C@@H]1CC[C@@H](C)C[C@H]1O
100 kPa, x1 = 0.1
Details | viscosity [mPa·s]
313.15 K | 16.61
318.15 K | 12.62
323.15 K | 9.81

ClC(Cl)(Cl)c1ccccc1 + CC(Cl)(Cl)Cl
298.15 K, 101.33 kPa
Details | viscosity [mPa·s]
x2 = 0.157 | 1.93
x2 = 0.295 | 1.72
x2 = 0.423 | 1.532
x2 = 0.54 | 1.367
x2 = 0.647 | 1.222
x2 = 0.746 | 1.096
x2 = 0.837 | 0.9829
x2 = 0.921 | 0.8849

OC1COCOC1 + CC(O)CO
viscosity [mPa·s], 101 kPa
Details | x1 = 0.1001 | x1 = 0.2022 | x1 = 0.2993 | x1 = 0.3988 | x1 = 0.5 | x1 = 0.5991 | x1 = 0.7069 | x1 = 0.8004 | x1 = 0.9002
298.15 K | 40.55 | 35.63 | 31.87 | 28.95 | 26.18 | 23.35 | 20.25 | 17.68 | 15.39
308.15 K | 23.27 | 20.32 | 18.06 | 16.28 | 14.83 | 13.52 | 12.12 | 10.93 | 9.829
318.15 K | 14.08 | 12.09 | 10.67 | 9.707 | 9.031 | 8.445 | 7.772 | 7.179 | 6.681

Cc1ccc(O)cc1 + CCC(=O)O
viscosity [mPa·s], 101 kPa
Details | x2 = 0.1344 | x2 = 0.2589 | x2 = 0.3745 | x2 = 0.4823 | x2 = 0.5828 | x2 = 0.677 | x2 = 0.7653 | x2 = 0.8482 | x2 = 0.9263
298.15 K | 10.16 | 7.533 | 5.663 | 4.309 | 3.321 | 2.59 | 2.042 | 1.625 | 1.297
308.15 K | 6.121 | 4.928 | 3.983 | 3.238 | 2.597 | 2.136 | 1.709 | 1.372 | 1.112
318.15 K | 4.876 | 4.035 | 3.365 | 2.772 | 2.281 | 1.853 | 1.512 | 1.241 | 0.9766

Nc1ccccc1Cl + CCC(C)O
viscosity [mPa·s], 101 kPa
Details | x1 = 0.0896 | x1 = 0.1798 | x1 = 0.2798 | x1 = 0.3912 | x1 = 0.4951 | x1 = 0.5894 | x1 = 0.6812 | x1 = 0.7958 | x1 = 0.8925
303.15 K | 2.78 | 2.94 | 3.11 | 3.28 | 3.41 | 3.51 | 3.6 | 3.7 | 3.76
308.15 K | 2.36 | 2.53 | 2.69 | 2.85 | 2.99 | 3.1 | 3.19 | 3.29 | 3.36
313.15 K | 2.04 | 2.21 | 2.37 | 2.53 | 2.66 | 2.77 | 2.86 | 2.96 | 3.03
318.15 K | 1.77 | 1.94 | 2.09 | 2.24 | 2.37 | 2.47 | 2.57 | 2.68 | 2.74

O=S1(=O)CCCC1 + CCC(C)O
viscosity [mPa·s], 101 kPa
Details | x1 = 0.0998 | x1 = 0.1988 | x1 = 0.2898 | x1 = 0.3908 | x1 = 0.4973 | x1 = 0.5943 | x1 = 0.7033 | x1 = 0.78 | x1 = 0.9045
303.15 K | 2.151 | – | 2.299 | 2.55 | 2.933 | 3.428 | 4.266 | 5.138 | 7.383
308.15 K | 1.858 | 1.884 | 2.015 | 2.246 | 2.597 | 3.049 | 3.799 | 4.576 | 6.529
313.15 K | 1.615 | 1.655 | – | 1.993 | 2.316 | 2.728 | 3.407 | 4.097 | 5.806
